The target of assay [1] is T1, 5-HT1A receptor (Sus scrofa, UniProt A0A4X1UTF5).
T1 construct: to a swine hippocampus membrane fraction; from tissue; host or cells: swine hippocampus
T1 sequence (A0A4X1UTF5 1-422): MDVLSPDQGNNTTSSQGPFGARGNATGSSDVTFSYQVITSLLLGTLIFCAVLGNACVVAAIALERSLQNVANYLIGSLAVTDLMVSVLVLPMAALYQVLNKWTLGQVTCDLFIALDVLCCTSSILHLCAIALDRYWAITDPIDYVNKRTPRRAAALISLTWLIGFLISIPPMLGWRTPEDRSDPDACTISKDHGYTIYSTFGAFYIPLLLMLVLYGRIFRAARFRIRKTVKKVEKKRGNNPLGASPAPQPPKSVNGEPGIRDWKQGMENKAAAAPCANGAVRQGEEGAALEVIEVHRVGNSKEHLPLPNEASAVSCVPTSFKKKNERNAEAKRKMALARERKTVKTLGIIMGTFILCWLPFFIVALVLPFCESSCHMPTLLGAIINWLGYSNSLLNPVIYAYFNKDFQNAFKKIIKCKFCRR
Nature of the assay: Test on affinity for serotonin 1A receptor ([3H]MPPF, hippocampus membrane fraction). Particulars: low affinity IC50 divided by high affinity IC50; not more than 1 = no intrinsic activity, not less than 2 = intrinsic activity. In kind it is binding, swine. The method, then: The affinity of test compounds for the 5-HT1A receptor was determined by an experiment for inhibition of a test compound against the binding of [^3H]-4-(2′-Methoxy)phenyl-1-[2′-(N-2″-pyridinyl)-p-fluorobenzamido]ethyl-piperazine (MPPF), selectively bound to the 5-HT1A receptor, to a swine hippocampus membrane fraction. The 5-HT1A receptor, which is a G protein binding receptor, is brought to a G protein bound state upon the addition of MgCl2, and is brought to a G protein nonbound state upon the addition of guanylylimidodiphosphate (Gpp(NH)p). It is generally known that a G protein receptor agonist has stronger affinity for the G protein bound receptor depending upon the level of the intrinsic activity. Accordingly, the affinity of a test compound for the receptor in a G protein nonbound state and the affinity of the test compound for the receptor in a G protein bound state were determined and compared with each other to estimate the level of the intrinsic activity of the test compound.
The greater this value, the higher the intrinsic activity.
Swine hippocampus was homogenized in an ice-cooled 50 mM Tris hydrochloride buffer (pH 7.4; hereinafter referred to as buffer A). The suspension was centrifuged at 40,000×g for 15 min. The resultant sediment was suspended in buffer A, and the suspension was then centrifuged at 40,000×g for 15 min. The same procedure was further repeated twice or three times. The finally obtained sediment was suspended in buffer A in an amount of about ten times larger than the wet weight of the swine hippocampus to prepare a membrane fraction which was then stored at −80° C. until use.
A mixture (0.5 mL) for incubation, containing an appropriate amount of the membrane fraction, a test compound in a desired concentration, MgCl2 (final concentration: 10 mM) or Gpp(NH)p (final concentration: 1 mM), [^3H]MPPF (final concentration: 0.5 nM), dimethyl sulfoxide (final concentration: 1% (v/v)), and 50 mM Tris hydrochloride buffer (pH 7.4), was provided. Upon the addition of the membrane fraction, a reaction started, and the mixture was incubated at 37° C. for 30 min. After the incubation, the incubated mixture was suction filtered through a glass filter with a cell harvester. After washing the glass filter with ice-cooled buffer A, the radioactivity bound to the receptor was measured with a liquid scintillation counter. The binding detected in the presence of 10 μM WAY-100,635. was regarded as nonspecific binding.

The test system of assay [2] is rat motor neuron cells. In words: Inhibition of 5HT toxicity in rat motor neuron primary pure culture system. In kind it is cell-based. Particulars: survival three days after seeding; for Inhibition of 5HT toxicity (survival rate): antagonist added 5 to 10 min before 5HT, FIG. 2, FIG. 3. The procedure: (§1) Based on the results of cell measurement, the rat motor neuron cells were diluted with the culture solution to 1.1 to 1.2×10^4 cells/mL. Greiner 4-well dishes previously coated with poly-L-ornithine/laminin were seeded with the cell suspension at 90 μL/well with a 1 mL Pipetman. […] The initial viable cell count was measured three hr after the addition of serotonin (5HT). The viable cell count was again measured three days after the cell seeding, and the survival rate was calculated based on the initial viable cell count. The cell count measurement was carried out under a phase-contrast microscope using marks previously applied on the backside of the Greiner 4-well dish as a reference.
as §1

For assay [3], the target named is T2, serotonin 2 receptor (Mus musculus, UniProt P35363).
T2 construct: known to induce mouse head twitch behavior through a serotonin 2 receptor; from tissue; host or cells: living mouse (in vivo behaviour test)
T2 sequence (P35363 whole entry): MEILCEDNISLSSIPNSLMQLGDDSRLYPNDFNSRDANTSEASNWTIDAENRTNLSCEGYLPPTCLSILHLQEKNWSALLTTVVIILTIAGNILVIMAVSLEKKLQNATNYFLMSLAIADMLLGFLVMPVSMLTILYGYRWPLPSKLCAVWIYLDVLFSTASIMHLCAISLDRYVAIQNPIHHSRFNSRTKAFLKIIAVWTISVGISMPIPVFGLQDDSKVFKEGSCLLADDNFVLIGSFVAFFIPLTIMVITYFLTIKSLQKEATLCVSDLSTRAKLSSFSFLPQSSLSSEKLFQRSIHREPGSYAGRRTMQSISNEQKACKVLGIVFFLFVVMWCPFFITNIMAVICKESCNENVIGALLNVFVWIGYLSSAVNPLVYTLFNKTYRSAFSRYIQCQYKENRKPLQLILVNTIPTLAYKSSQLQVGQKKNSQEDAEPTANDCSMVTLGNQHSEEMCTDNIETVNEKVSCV
In words: Mouse head twitch behavior test (tryptamine-induced). In kind it is in vivo. As to conditions: tryptamine 30 mg/kg i.v.; test compound 15 min before; FIG. 7. The method, then:
The serotonin 2 receptor antagonist activity of test compounds was determined by a mouse head twitch behavior test. Tryptamine is a serotonin 2 receptor agonist and is known to induce mouse head twitch behavior through a serotonin 2 receptor. Accordingly, the serotonin 2 receptor antagonist activity of the test compounds can be evaluated based on the head twitch behavior by tryptamine. Tryptamine was administered intravenously to mice at 30 mg/kg, and the number of times of appearance of the head twitch within one min after the start of administration counted. The test compounds (compounds 1 and 4) were administered 15 min before the intravenous administration of tryptamine.
[^3H]8-hydroxy-dipropylaminotetralin is known to be used for the measurement of binding of test compounds to serotonin 1A receptors (European Journal of Pharmacology, 90, p. 151-153, 1983.). Further, [^3H]ketanserin is known to be used for the measurement of binding of test compounds to serotonin 2A receptors (Brian Dean and Wendy Hayes, Schizophrenia Research, 21, p. 133-139, 1996.). Furthermore, the test on mouse head twitch behavior with tryptamine is known to be used for the measurement of the serotonin 2 receptor antagonist activity of test compounds (Yamada J., et al., European Journal of Pharmacology, 140, p. 323-330, 1987; and Yamada J., et al., Neuropharmacology, 26, p. 49-53, 1987.).

The target of assay [4] is T1, 5-HT1A receptor. As to conditions: receptor in G protein bound state (MgCl2 10 mM), 0.5 nM [3H]MPPF, swine hippocampus membrane; WO 2005/108389; read-out: High affinity; cited from earlier work.
Assay [5] relates to rat motor neuron cells. In words: Evaluation of toxicity of 5HT in rat motor neuron primary pure culture system. In kind it is cell-based. The method, then:
Rat motor neuron cells were subjected to pure culture in the presence of 30 ng/mL BDNF for three days, and toxicity of serotonin (5HT) was evaluated.
The rat motor neuron primary pure culture was carried out by a method which is modification of Nishijima et al. method (Nishijima C. et al., J Neurochem 76, 383-390(2001)) by incorporating a purification method and the like in the Nishijima et al. method.
A necessary number of Greiner-4-well dishes (10 mm i.d. wells) (Greiner bio-one) were provided, and 0.15 M sodium borate buffer (pH 8.3) containing 0.5 mg/mL poly-L-ornithine was added at 100 μL/well followed by standing at 4° C. overnight. Ornithine was removed by suction, the residue was washed three times with PBS(−), and L-15 (CO2) containing 10 μg/mL laminin (Gibco-BRL) was spread at 50 μL/well. […]
Wistar pregnant rats (fifteen days pregnant) (Tokyo Laboratory Animals Science Co., Ltd.) were etherized and were then sacrificed by cervical dislocation. […] One hr after the start of the culture, serotonin (serotonin creatinine sulfate complex, Sigma) or glutamate (Sigma) was added thereto, and, three hr after that, the initial viable cell count was measured. The viable cell count was again measured three days after the cell seeding, and the survival rate was calculated based on the initial viable cell count. […]

Take `COc1cc2onc(C)c2cc1CCN1CCC(n2ccc3ccc(C(N)=O)cc32)CC1` [Compound 13, 1-{1-[2-(6-methoxy-3-methylbenzo[d]isoxazol-5-yl)ethyl]piperidin-4-yl}-1H-indole-6-carboxamide]: in assay [1], the L/H ratio turned out to be 1.3.

Regarding `CNC(=O)Cc1ccc2ccn(C3CCN(CCc4ccccc4F)CC3)c2c1` [Compound 1, N-methyl-{1-[1-(2-fluorophenethyl)piperidin-4-yl]-1H-indol-6-yl}acetamide], in assay [2] (compound added 5 to 10 min before 5HT, FIG. 5, FIG. 6), the “Concentration at which 5HT excitotoxicity is inhibited” value is “not less than 0.1 nM”. Moreover, the “Serotonin 2A receptor antagonist activity (head twitch by tryptamine)” value in assay [3] is recorded as “excellent serotonin 2A receptor antagonist activity”.

As for `OC(c1ccccc1)C1CCN(CCc2ccccc2)CC1` (stereo not shown) [MDL-11939], the “Inhibition of 5HT toxicity (survival rate)” value (“Inhibition of 5HT toxicity” for short) in assay [2] is “inhibited”.

As for `COc1ccc2c(c1CCN1CCC(n3ccc4ccc(C(N)=O)cc43)CC1)OC(C)(C)CC2=O` [Compound 10, 1-{1-[2-(7-methoxy-2,2-dimethyl-4-oxochroman-8-yl)ethyl]piperidin-4-yl}-1H-indole-6-carboxamide], in assay [4], the IC50 was 0.13 nM. Moreover, the L/H ratio in assay [1] is on record as 0.8.

Turning to `COc1ccccc1N1CCN(CCCCN2C(=O)c3ccccc3C2=O)CC1` [NAN-190], the “Inhibition of 5HT toxicity” value in assay [2] is “inhibited”.

Regarding `COc1cc2c(cc1CCN1CCC(n3ccc4ccc(C(N)=O)cc43)CC1)OCCO2` [Compound 15, 1-{1-[2-(7-methoxy-2,3-dihydrobenzo[1,4]dioxin-6-yl)ethyl]piperidin-4-yl}-1H-indole-6-carboxamide], the L/H ratio in assay [1] is recorded as 0.9.

For the compound `COc1cc2oc(C)nc2cc1CCN1CCC(n2ccc3ccc(C(N)=O)cc32)CC1` [Compound 11, 1-{1-[2-(6-methoxy-2-methylbenzoxazol-5-yl)ethyl]piperidin-4-yl}-1H-indole-6-carboxamide], the L/H ratio in assay [1] turned out to be 0.9.

On to `NCCOB(c1ccccc1)c1ccccc1` [Compound 2-APB], for which the “Inhibition of 5HT toxicity” value in assay [2] is “inhibition of 5HT excitotoxicity”.

As for `CNC(=O)c1ccc2ccn(C3CCN(CCc4c(OC)ccc5c4OC(C)(C)CC5=O)CC3)c2c1` [Compound 9, 1-{1-[2-(7-methoxy-2,2-dimethyl-4-oxochroman-8-yl)ethyl]piperidin-4-yl}-N-methyl-1H-indole-6-carboxamide], the IC50 in assay [4] is 0.2 nM. In addition, the L/H ratio in assay [1] worked out at 0.8.

Turning to `COc1ccc2c(C)noc2c1CCN1CCC(n2ccc3ccc(C(N)=O)cc32)CC1` [Compound 14, 1-{1-[2-(6-methoxy-3-methylbenzo[d]isoxazol-7-yl)ethyl]piperidin-4-yl}-1H-indole-6-carboxamide], in assay [1], the L/H ratio amounted to 1.6.

In the case of `COc1ccc2nc(C)oc2c1CCN1CCC(n2ccc3ccc(C(N)=O)cc32)CC1` [Compound 12, 1-{1-[2-(6-methoxy-2-methylbenzoxazol-7-yl)ethyl]piperidin-4-yl}-1H-indole-6-carboxamide], the L/H ratio in assay [1] is given as 0.7.

Turning to `NCCc1c[nH]c2ccc(O)cc12` [Compound 5HT, serotonin], in assay [5] (serum-free culture solution, FIG. 1B), the “5HT toxicity compared with glutamate toxicity” value is listed as “comparable with glutamate toxicity”. The “Toxicity of 5HT (survival rate of motor neuron cells)” value in assay [5] (three days culture, 30 ng/mL BDNF, FIG. 1A) is “showed toxicity in a concentration-dependent manner”.

Values taken from patent US7541371B2, “Method for treating a motor neuron disease” (Eisai R&D Management Co., Ltd., priority 2006, dated 2009).
